Data from a melting point compilation (Tetko et al.; mined from patent text by program, amines drawn as free bases though some values may be those of a salt).

For `CON=CC(C)(C#N)NC(=O)C(Oc1ccc2ncc(Br)cc2c1)SC` (stereo unspecified), which melting point is on record?
Its melting point is 138 to 145 °C.

With `CS(=O)(=O)c1ccc(Oc2cc(OCc3ccccc3)c3[nH]c(C#N)cc3c2)cc1` as the compound, how does the melting point read?
The melting point was 209 to 210 °C.

Which melting point does the source give for `COC(=O)c1ccc(I)c2c1Nc1ccccc1C2` here?
The melting point was 119 to 121 °C.

Which melting point does the source give for `COC(=O)c1cc(=O)c2c(C)cc(Br)cc2[nH]1` here?
The melting point was 258 to 259 °C.

For `CN1C(=O)C(C(=O)Nc2ccc(Oc3ccc(C(F)(F)F)cn3)cc2)C(=O)N(C)C1=O`, which melting point is on record?
The melting point was 180 to 181 °C.

With `COc1ccc(Nc2cccc3c2C(=O)N([C@@]2(C)CCC(=O)NC2=O)C3=O)c(OC)c1` as the compound, how does the melting point read?
The melting point was 255 to 257 °C.

With `CC(=O)NC(CO)CCc1ccc(Sc2cccc(OCc3ccccc3)c2)cc1Cl` (stereo unspecified) as the compound, how does the melting point read?
Its melting point is 78 to 81 °C.

With `Cc1ccc(C2CC(=O)c3ccccc3N2)cc1` (stereo unspecified) as the compound, how does the melting point read?
The melting point was 144 to 146 °C.

For `CC(CC(=O)Nc1cc(-c2ccnc3c(C(=O)c4cccs4)cnn23)ccc1F)C(F)(F)F` (stereo unspecified), which melting point is on record?
The melting point was 185 to 186 °C.

Which melting point does the source give for `CN1C[C@H](CCCl)Oc2ncccc2C1=O` here?
Its melting point is 61 to 62 °C.

Which melting point does the source give for `CC1(C)CCC(C)(C)c2cc(-c3csc(C=O)c3)ccc21` here?
Its melting point is 84 to 85 °C.

For `O=C(OCc1ccccc1)c1ccc(O)cc1O`, which melting point is on record?
Its melting point is 83 to 88 °C.

For `FC(F)c1ccccc1C=C1c2ccccc2CCc2ccccc21`, which melting point is on record?
The melting point was 13.3 °C.

Which melting point does the source give for `CC(C)c1cccc(C(C)C)c1NC(=O)CN1C(=O)N(c2ccc(S(C)(=O)=O)cc2)C2(CCCCC2)C1=O` here?
The melting point was 250 °C.

With `CCN(CC)c1cc(C)nc(Oc2c(C)cc(Cl)cc2C)c1C` as the compound, how does the melting point read?
The melting point was 184 to 185 °C.

With `O=C(CCCl)N(O)c1ccccc1` as the compound, how does the melting point read?
The melting point was 87 to 88 °C.

Which melting point does the source give for `Cc1cc(CNc2cccc(C(=O)O)c2C(=O)O)oc1C` here?
The melting point was 127 to 129 °C.

For `CCCCc1oc2ccccc2c1-c1ncc(-c2ccc3cc(OCc4ccc(C(=O)O)cc4)ccc3c2)o1`, which melting point is on record?
Its melting point is 251 to 254 °C.

Which melting point does the source give for `C=CCN1C(=O)N(CC=C)[C@@H](C(=O)O)[C@H]1C(=O)O` here?
The melting point was 161 to 163 °C.

With `O=C1CC(c2ccc(O)cc2)Cc2ccccc21` (stereo unspecified) as the compound, how does the melting point read?
The melting point was 194 to 195 °C.

With `Cc1cc(OC(F)F)c([N+](=O)[O-])cc1S(=O)(=O)N(C)C` as the compound, how does the melting point read?
Its melting point is 125 to 126 °C.

Which melting point does the source give for `COc1cnccc1C#N` here?
The melting point was 66 to 67 °C.

For `CC1(C)C(=O)C(C)(C)c2cc3[nH]c(SCc4ccccn4)nc3cc21`, which melting point is on record?
Its melting point is 167 to 168 °C.

For `CNC(=O)c1cccc(C(O)c2ccc(F)cc2)c1` (stereo unspecified), which melting point is on record?
Its melting point is 138 to 139 °C.

Which melting point does the source give for `OCC#CCCCCCCC#Cc1ccc(O)c(O)c1` here?
The melting point was 81 to 83 °C.

For `COc1cc(C(=O)O)ccc1Cc1cn(C(C)C)c2ccc(CCCC(=O)N(C)C)cc12`, which melting point is on record?
The melting point was 168 to 170 °C.

For `O=C(C1CCC(Nc2nccc(-n3nnc4c(-c5ccsc5)cccc43)n2)CC1)N1CCC(O)CC1` (stereo unspecified), which melting point is on record?
The melting point was 233 to 234 °C.

With `O=C(O)CCNC(=O)C(=Cc1ccc(C(F)(F)F)cc1)CS` as the compound, how does the melting point read?
The melting point was 108 °C.

With `NC(=O)[C@H]1CCCCCC[C@H](CS)C(=O)N1` (relative stereo) as the compound, how does the melting point read?
Its melting point is 185 to 192 °C.

With `COc1cc(CN2CCNC(CO)C2)cc(OC)c1OC` (stereo unspecified) as the compound, how does the melting point read?
The melting point was 93 °C.

With `O=C(O)CN1C(=O)C(=CC=Cc2ccccc2)SC1=S` as the compound, how does the melting point read?
The melting point was greater than 217 °C.

With `C[Si](C)(C)C#Cc1c(C#N)nn(-c2c(Cl)cc(OC(F)(F)F)cc2Cl)c1N` as the compound, how does the melting point read?
Its melting point is 152 °C.

With `O=C(Nc1ccc(Cl)cc1)N1CC(c2ccccc2)C(c2ccc(Cl)cc2)=N1` (stereo unspecified) as the compound, how does the melting point read?
The melting point was 173 to 175 °C.

Which melting point does the source give for `C#CCN1C(=O)COc2ccc(-n3c(OC)nc(C(F)(F)F)cc3=O)cc21` here?
Its melting point is 218 to 220 °C.

Which melting point does the source give for `O=[N+]([O-])c1ccccc1-c1nnc(-c2ccc(C3OCCO3)cc2)o1` here?
The melting point was 88 to 89 °C.

With `CC/C(=C\C#N)c1ccc2c(c1)C(CC)(CC)OC(=O)N2` as the compound, how does the melting point read?
The melting point was 135 to 136 °C.

Which melting point does the source give for `Cc1sc(CCc2ccc(CCCC3OC(=O)NC3=O)cc2)nc1-c1ccccc1` (stereo unspecified) here?
The melting point was 111 to 112 °C.

With `Cc1cc(C)cc(Nc2cccc3c2OC(CN)C3)c1` (stereo unspecified) as the compound, how does the melting point read?
The melting point was greater than 250 °C.

For `O=CNc1csc(Cl)n1`, which melting point is on record?
The melting point was 138 °C.

For `Cc1oc(-c2ccccc2)nc1COc1ccc(CCn2cc(CCC(=O)O)c(-c3ccccc3)n2)cc1`, which melting point is on record?
The melting point was 85 to 86 °C.

With `Cc1c(NC(=O)c2ccc(-c3ccc(F)cc3)cc2)ccc2cc(CN3CCCC3)cnc12` as the compound, how does the melting point read?
The melting point was 220 to 222 °C.

Which melting point does the source give for `CN(CCN(C)CCN1C(=O)c2cccc3cc4ccccc4c(c23)C1=O)CCN1C(=O)c2cccc3cc4ccccc4c(c23)C1=O` here?
The melting point was 255 °C.

For `N#CN1C(=O)[C@H]2CC=CC[C@H]2C1=O`, which melting point is on record?
The melting point was 136 to 138 °C.

Which melting point does the source give for `COc1cc2ncnc(NC3=CC(=O)C(c4ccccc4)=CC3=O)c2cc1OC` here?
The melting point was 200 to 205 °C.

For `Cc1ccc(-c2nc(-c3nn(Cc4ccccc4F)c4ncccc34)ncc2C#N)cc1`, which melting point is on record?
The melting point was 229 °C.

Which melting point does the source give for `CCc1nnc2c(N(CC)CC)nc3ccccc3n12` here?
Its melting point is 98 to 100 °C.

Which melting point does the source give for `O=C(O)c1cccc(NC(=O)C(CS)Cc2ccccc2)c1` (stereo unspecified) here?
Its melting point is 178 to 180 °C.

Which melting point does the source give for `COC(=O)NC1CCc2ccc(Cl)cc2C1=O` (stereo unspecified) here?
The melting point was 126 to 127 °C.

For `CC(=O)NCC1CN(c2ccc(S(C)=O)c(F)c2)C(=O)O1` (stereo unspecified), which melting point is on record?
Its melting point is 143 to 145 °C.

For `CCSc1cc(C)nc(SCC)c1NC(=O)CN1CCN(CCSc2nc3c(C)c(Cl)cc(C(C)C)c3o2)CC1`, which melting point is on record?
The melting point was 120 to 122 °C.

With `O=C(O)COCCCC1CCCN1c1cnc(-c2ccccc2)c(-c2ccccc2)n1` (stereo unspecified) as the compound, how does the melting point read?
The melting point was 137 to 139 °C.

For `Cc1nnn(-c2ccc(F)cc2)c1CCl`, which melting point is on record?
Its melting point is 70 to 71 °C.

Which melting point does the source give for `CCc1nc2c(N)nc(-c3ccncc3)nc2[nH]1` here?
Its melting point is greater than 300 °C.

With `COc1ccc(C(=O)Oc2ccc(C(=O)O)cc2)cc1C12CC3CC(CC(C3)C1)C2` as the compound, how does the melting point read?
Its melting point is 265 to 267 °C.

Which melting point does the source give for `OCc1c(CO)c2sc3ccccc3n2c1-c1ccc(F)cc1` here?
The melting point was 155 to 156 °C.

For `CN1CCc2c(N3CCCC3)c(F)c(N)c3c(=O)c(C(=O)O)cn1c23`, which melting point is on record?
Its melting point is greater than 290 °C.

For `COc1ccccc1NC(=O)Nc1ccc(N2CCN(C(=O)Nc3cc(OCCO)ccc3Cl)CC2)cc1`, which melting point is on record?
Its melting point is 179 to 180 °C.

For `O=c1[nH]c2c3ccccc3c(=CO)c2n2ccnc12`, which melting point is on record?
Its melting point is 290 °C.

Which melting point does the source give for `N#CC1(N)CCC2Cc3ccccc3CC2C1` (stereo unspecified) here?
Its melting point is 128 °C.

Which melting point does the source give for `Cc1cccc(C(CCC(=O)O)Oc2cc(OCc3cccnc3)ccc2C#N)c1C` (racemic) here?
Its melting point is 187 to 189 °C.

Which melting point does the source give for `COCO[C@@H]1[C@H]2OC(C)(C)O[C@H]2[C@H](O[C@H]2C[C@H]3OC(C)(C)OC[C@]34C3C(CC[C@]4(O)C2)[C@@]2(O)CC[C@H](C#N)[C@@]2(C)C[C@H]3OCOC)O[C@H]1C` (stereo partly specified) here?
The melting point was 97 to 99 °C.

Which melting point does the source give for `CCOc1cccc(COc2ccc3c(c2)C=C(C(=O)O)CCS3(=O)=O)c1` here?
The melting point was 150 to 154 °C.

With `O=C(NCc1ccc(Cl)cc1)c1cnc2c(C(F)(F)F)cc(CCCO)cc2c1O` as the compound, how does the melting point read?
The melting point was 249 to 250 °C.

With `O=C(NC(P(=O)(O)O)P(=O)(O)O)c1cc2ccccc2s1` as the compound, how does the melting point read?
The melting point was 234 to 238 °C.

With `CC(=O)NC(=O)CSC(=O)c1ccco1` as the compound, how does the melting point read?
The melting point was 103 to 105 °C.

Which melting point does the source give for `COc1cc(C)c(CCCCCCCCCCCCCCCCCCCCCC(=O)O)c(O)c1OC` here?
Its melting point is 67 to 68 °C.

Which melting point does the source give for `Cc1ccc(-c2ccc(S(C)(=O)=O)c(F)c2)n1-c1ccc(-c2cscn2)cc1` here?
Its melting point is 215 °C.

Which melting point does the source give for `CCCCCCn1ccc(N)nc1=O` here?
The melting point was 216 to 217 °C.

For `COc1cc(C=CC(=O)c2ccc([N+](=O)[O-])cc2)cc(OC)c1`, which melting point is on record?
The melting point was 166 °C.

Which melting point does the source give for `COc1cc(CC(=O)O)ccc1OCc1nc(-c2ccccc2)oc1C` here?
The melting point was 176 to 177 °C.

For `CC(C)C[C@H](NC(=O)[C@H](Cc1c[nH]c2ccccc12)NC(=O)OC(C)(C)C)C(=O)CCl`, which melting point is on record?
Its melting point is 140 to 141 °C.
